Reference: patent publication US5593970A, “Heterocyclic anthracycline analogs” (priority 1994, dated 1997)
Structures can show the parent of a compound that is named as a salt. Where two headings read alike, the source gives them in different places.

Legend:
Experiment in all cases: Microculture tetrazolium assay
Type in all cases: cell-based
SKOV3 = system: SKOV3
SKVLB = conditions: for VLB/OV3: IC50 ratio SKVLB/SKOV3; for IC50: SKVLB
T47D = system: T47D
LOX = system: LOX
HT29 = system: HT29
[1] = Homo sapiens, SK-OV-3, SKOV3, read-out: IC50
[2] = Homo sapiens, HT-29, HT29, read-out: IC50

Compound	IC50 (SKOV3; [1]) [nM]	VLB/OV3 (SKVLB)	IC50 (SKVLB; read-out: IC50) [nM]	IC50 (T47D; Homo sapiens, read-out: IC50) [nM]	IC50 (LOX; read-out: IC50) [nM]	IC50 (HT29; [2]) [nM]	IC50 (SKVLB) [nM]	IC50 (SKOV3; Homo sapiens, SK-OV-3, SKOV3) [nM]	IC50 (SKOV3; SKOV3, read-out: IC50) [nM]	IC50 (T47D; read-out: IC50) [nM]	IC50 (HT29; HT29, read-out: IC50) [nM]	IC50 (T47D; Homo sapiens) [nM]	IC50 (LOX) [nM]	IC50 (HT29; Homo sapiens, HT-29, HT29) [nM]
C[C@@H]1O[C@@H](O[C@@H]2OCCC3=C2C(=O)c2cc4ccccc4c(O)c2C3=O)C[C@H](NC(=O)C(F)(F)F)[C@@H]1O [BCH-1647]	3590	1.67	6000	871	3240	2500	–	–	–	–	–	–	–	–
CCN(CC)C(=O)[C@H]1CC2=C(C(=O)c3cc4ccccc4c(O)c3C2=O)[C@H](O[C@H]2C[C@H](NC(=O)C(F)(F)F)[C@H](O)[C@H](C)O2)O1 [BCH-1653]	3220	1.85	–	7090	3920	885	5970	–	–	–	–	–	–	–
CCN(CC)C(=O)[C@@H]1CC2=C(C(=O)c3cc4ccccc4c(O)c3C2=O)[C@@H](O[C@H]2C[C@H](NC(=O)C(F)(F)F)[C@H](O)[C@H](C)O2)O1 [BCH-1656]	–	1.72	7070	5190	3860	3770	–	4120	–	–	–	–	–	–
CC(=O)C1CC2=C(C(=O)c3cc4ccccc4c(O)c3C2=O)C(OC[C@@H]2COC(C)(C)O2)S1 (some centres unmarked) [BCH-1660]	2290	0.88	2020	4970	2810	6280	–	–	–	–	–	–	–	–
CC(=O)C1CC2=C(C(=O)c3cc4ccccc4c(O)c3C2=O)C(OC[C@@H]2COC(C)(C)O2)O1 (some centres unmarked) [BCH-1661]	2820	0.94	2660	5120	3590	3040	–	–	–	–	–	–	–	–
COC[C@@H]1CC2=C(C(=O)c3cc4ccccc4c(O)c3C2=O)[C@@H](O[C@H]2C[C@H](NC(=O)C(F)(F)F)[C@H](O)[C@H](C)O2)O1 [BCH-1694, (1'S,1R,3S)-5,12-dioxo-6-hydroxy-3-methoxymethyl-1-(2',3',6'-trideoxy-3'-trifluoroacetamido-L-lyxohexopyranose)-3,4,5,12-tetrahydroanthraceno-[2,3-C]pyran]	2990	3.19	9540	4490	3580	4310	–	–	–	–	–	–	–	–
COC[C@@H]1CC2=C(C(=O)c3cc4ccccc4c(O)c3C2=O)[C@@H](O[C@H]2C[C@H](N)[C@H](O)[C@H](C)O2)O1 [BCH-1695, (1'S ,1R,3S)-5,12-dioxo-6-hydroxy-3-methoxymethyl-1-(2',3',6'trideoxy-3'-amino-L-lyxohexopyranose)-3,4,5,12-tetrahydroanthraceno-[2,3-c]pyran]	–	4.46	25600	12800	5230	14800	–	5740	–	–	–	–	–	–
COC[C@H]1CC2=C(C(=O)c3cc4ccccc4c(O)c3C2=O)[C@H](O[C@H]2C[C@H](NC(=O)C(F)(F)F)[C@H](O)[C@H](C)O2)O1 [BCH-1696, (1'S,1S,3R)-5,12-dioxo-6-hydroxy-3-methoxymethyl-1-(2',3',6'-trideoxy-3'-trifluoroacetamido-L-lyxohexopyranose)-3,4,5,12-tetrahydroanthraceno-[2,3-C]pyran]	1100	2.46	2710	1210	1100	823	–	–	–	–	–	–	–	–
COCC1(COC)CC2=C(C(=O)c3cc4ccccc4c(O)c3C2=O)[C@H](O[C@H]2C[C@H](NC(=O)C(F)(F)F)[C@H](O)[C@H](C)O2)O1 [BCH-1698, (1'S,1S)-5,12-dioxo-6-hydroxy-3,3-bismethoxymethyl-1-(2',3',6'-trideoxy-3'-trifluoroacetamido-L-lyxohexopyranose)-3,4,5,12-tetrahydroanthraceno-[2,3-C]pyran]	865	6.73	5820	727	398	1120	–	–	–	–	–	–	–	–
CC(=O)[C@@H]1CC2=C(C(=O)c3cc4ccccc4c(O)c3C2=O)[C@@H](O[C@@H]2O[C@@H](C)[C@@H](O)[C@@H](O)C2I)O1 (some centres unmarked) [BCH-1990]	2100	2.64	–	3880	3010	1100	5540	–	–	–	–	–	–	–
COCC1(COC)CC2=C(C(=O)c3cc4ccccc4c(O)c3C2=O)[C@H](O[C@H]2C[C@H](N)[C@H](O)[C@H](C)O2)O1 [BCH-1991, (1'S,1S)-5,12-dioxo-6-hydroxy-3,3-bis-methoxymethyl-1-(2',3',6'-trideoxy-3'-amino-L-lyxohexopyranose)-3,4,5,12-tetrahydroanthraceno-[2,3-c]-pyran hydrochloride]	1470	3.77	–	918	1290	1720	5540	–	–	–	–	–	–	–
CC(=O)[C@@H]1CC2=C(C(=O)c3cc4ccccc4c(O)c3C2=O)[C@H](OC[C@@H]2COC(C)(C)O2)S1 [BCH-1993]	–	3.10	13000	–	4020	–	–	–	4190	9810	3470	–	–	–
CC(=O)[C@H]1CC2=C(C(=O)c3cc4ccccc4c(O)c3C2=O)[C@@H](OC[C@@H]2COC(C)(C)O2)S1 [BCH-1994]	–	3.15	8620	–	1910	–	–	–	2740	4410	1960	–	–	–
C[C@@H]1O[C@@H](O[C@@H]2O[C@@H]([C@H](O)CO)CC3=C2C(=O)c2cc4ccccc4c(O)c2C3=O)C[C@H](NC(=O)C(F)(F)F)[C@@H]1O [BCH-1997]	1560	4.31	6720	2140	2300	2690	–	–	–	–	–	–	–	–
CC(=O)[C@@H]1Cc2c(O)c3c(c(O)c2[C@@H](O[C@H]2O[C@H](CO)[C@@H](O)[C@H](O)[C@H]2NC(=O)N(CCCl)N=O)O1)C(=O)c1ccccc1C3=O [BCH-1999, (1'R, 1R,3S)-3-aceto-5,12-dihydroxy-1(2-deoxy-2-chloroethylnitrosoureido D-glucopyranose)-6,11-dioxo-3,4,6,11-tetrahydro-1H-anthra[2,3-c]pyran]	–	–	–	–	–	–	1000	< 7740	–	–	–	20000	4970	8060
C[C@@H]1O[C@@H](O[C@@H]2O[C@@H](S(=O)(=O)c3ccccc3)CC3=C2C(=O)c2cc4ccccc4c(O)c2C3=O)C[C@H](NC(=O)C(F)(F)F)[C@@H]1O [BCH-2001]	3060	1.90	5820	2590	2490	1380	–	–	–	–	–	–	–	–
C[C@@H]1O[C@@H](O[C@@H]2OC=CC3=C2C(=O)c2cc4ccccc4c(O)c2C3=O)C[C@H](NC(=O)C(F)(F)F)[C@@H]1O [BCH-2002]	1240	2.88	3570	1460	1750	980	–	–	–	–	–	–	–	–
C=CC[C@H]1CC2=C(C(=O)c3cc4ccccc4c(O)c3C2=O)[C@H](O[C@H]2C[C@H](N)[C@H](O)[C@H](C)O2)O1 [BCH-2006, (1'S,1S,3S)-3-(6-hydroxy-1-(2',3',6'-trideoxy-3'-amino-4'-hydroxy-L-lyxohexopyranose)-5,12-dioxo-3,4,5,12-tetrahydroanthraceno-[2,3-c]pyran-3-yl)propene hydrochloride]	882	4.23	3730	1920	484	410	–	–	–	–	–	–	–	–
C[C@@H]1O[C@@H](O[C@H]2O[C@H](C#N)CC3=C2C(=O)c2cc4ccccc4c(O)c2C3=O)C[C@H](NC(=O)C(F)(F)F)[C@@H]1O [BCH-2007, (1'S,1R,3S)-3-(6-hydroxy-1-(2',3',6'-trideoxy-3'-trifluoroacetamido-4'-hydroxy-L-lyxohexopyranose)-5,12-dioxo-3,4,5,12-tetrahydroanthraceno-[2,3-c]pyran-3-yl)nitrile]	433	6.44	2790	506	379	148	–	–	–	–	–	–	–	–
C[C@@H]1O[C@@H](O[C@@H]2O[C@@H](C#N)CC3=C2C(=O)c2cc4ccccc4c(O)c2C3=O)C[C@H](NC(=O)C(F)(F)F)[C@@H]1O [BCH-2008, (1'S,1S,3R)-3-(6-hydroxy-1-(2',3',6'-trideoxy-3'-trifluoroacetamido-4'-hydroxy-L-lyxohexopyranose)-5,12-dioxo-3,4,5,12-tetrahydroanthraceno-[2,3-c]pyran-3-yl)nitrile]	332	6.57	2180	387	154	62.5	–	–	–	–	–	–	–	–
C[C@@H]1O[C@@H](O[C@H]2O[C@H](c3ccccc3)CC3=C2C(=O)c2cc4ccccc4c(O)c2C3=O)C[C@H](NC(=O)C(F)(F)F)[C@@H]1O [BCH-2010, (1S, 1R, 3S)-3-(6-hydroxy-1-(2',3',6'-trideoxy-3'-trifluoroacetamido-4'-hydroxy-L-lyxohexopyranose)-5,12-dioxo-3,4,5,12-tetrahydroanthraceno-[2,3-c]pyran-3-yl)benzene]	12700	2.24	28500	13500	9250	10700	–	–	–	–	–	–	–	–
C[C@@H]1O[C@@H](O[C@H]2O[C@H](c3ccccc3)CC3=C2C(=O)c2cc4ccccc4c(O)c2C3=O)C[C@H](N)[C@@H]1O [BCH-2012, (1'S,1R,3S)-3-(6-hydroxy-1-(2',3',6'-trideoxy-3'-amino-4'-hydroxy-L-lyxohexopyranose)-5,12-dioxo-3,4,5,12-tetrahydroanthraceno-[2,3-c]pyran-3-yl)benzene hydrochloride]	2060	1.96	4030	954	736	565	–	–	–	–	–	–	–	–
